Active and inactive are the calls of the source. The rule behind the calls is not given here.
Tests used:
HCT-116 = test: Antiproliferative activity against human HCT116 cells after 48 hrs by MTT assay; assay type: functional, cell-based; conditions: HCT-116, 48 h
HCT-15 = test: Antiproliferative activity against human HCT15 cells after 48 hrs by MTT assay; assay type: functional, cell-based; conditions: HCT-15, 48 h
NCI-H460 [1] = test: Antiproliferative activity against human NCI-H460 cells after 48 hrs by MTT assay; assay type: functional, cell-based; conditions: NCI-H460, 48 h
[2] = Antiproliferative activity against human U87 cells after 48 hrs by MTT assay; assay type: functional, cell-based, U-87MG ATCC; conditions: U-87 MG
DU-145 = test: Antiproliferative activity against human DU145 cells after 48 hrs by MTT assay; assay type: functional, cell-based; conditions: DU-145, 48 h
PC-3 = test: Antiproliferative activity against human PC3 cells after 48 hrs by MTT assay; assay type: functional, cell-based; conditions: PC-3, 48 h
A549 = test: Antiproliferative activity against human A549 cells after 48 hrs by MTT assay; assay type: functional, cell-based; conditions: A549, 48 h
NCI-H460 [3] = test: Induction of morphological changes in human NCI-H460 cells assessed as […] deformation at 1.25 to 5 uM after 48 hrs by phase contrast microscopic analysis; assay type: functional, cell-based
NCI-H460 [4] = test: Induction of morphological changes in human NCI-H460 cells assessed as cell shrinkage at 1.25 to 5 uM after 48 hrs by phase contrast microscopic analysis; assay type: functional, cell-based
NCI-H460 [5] = test: Induction of apoptosis in human NCI-H460 cells assessed as reduction in viable cells at 1.25 to 5 uM after 48 hrs by phase contrast microscopic analysis; assay type: functional, cell-based
NCI-H460 [6] = test: Induction of apoptosis in human NCI-H460 cells assessed as horse-shoe shaped nuclei at 2.5 to 10 uM after 24 hrs by DAPI staining-based fluorescence microscopic analysis; assay type: functional, cell-based
NCI-H460 [7] = test: Induction of reactive oxygen species generation in human NCI-H460 cells after 6 hrs by DCFDA staining-based method; assay type: functional, cell-based
NCI-H460 [8] = test: Induction of reactive oxygen species generation in human NCI-H460 cells after 6 hrs in presence of NAC by DCFDA staining-based method; assay type: functional, cell-based
[9] = Inhibition of porcine brain tubulin polymerization after 1 hr in presence of GTP by fluorescence assay; design: species or system Sus scrofa
NCI-H460 [10] = test: Cell cycle arrest in human NCI-H460 cells assessed as accumulation at G0/G1 phase at 1.25 uM after 24 hrs by propidium iodide staining-based flow cytometry (reference value: 49.17%); assay type: functional
NCI-H460 [11] = test: Cell cycle arrest in human NCI-H460 cells assessed as accumulation at S phase at 1.25 uM after 24 hrs by propidium iodide staining-based flow cytometry (reference value: 15.55%); assay type: functional
NCI-H460 [12] = test: Cell cycle arrest in human NCI-H460 cells assessed as accumulation at G2/M phase at 1.25 uM after 24 hrs by propidium iodide staining-based flow cytometry (reference value: 34.71%); assay type: functional
NCI-H460 [13] = test: Cell cycle arrest in human NCI-H460 cells assessed as accumulation at G0/G1 phase at 2.5 uM after 24 hrs by propidium iodide staining-based flow cytometry (reference value: 49.17%); assay type: functional
NCI-H460 [14] = test: Cell cycle arrest in human NCI-H460 cells assessed as accumulation at S phase at 2.5 uM after 24 hrs by propidium iodide staining-based flow cytometry (reference value: 15.55%); assay type: functional
NCI-H460 [15] = test: Cell cycle arrest in human NCI-H460 cells assessed as accumulation at G2/M phase at 2.5 uM after 24 hrs by propidium iodide staining-based flow cytometry (reference value: 34.71%); assay type: functional
NCI-H460 [16] = test: Cell cycle arrest in human NCI-H460 cells assessed as accumulation at G0/G1 phase at 5 uM after 24 hrs by propidium iodide staining-based flow cytometry (reference value: 49.17%); assay type: functional
NCI-H460 [17] = test: Cell cycle arrest in human NCI-H460 cells assessed as accumulation at S phase at 5 uM after 24 hrs by propidium iodide staining-based flow cytometry (reference value: 15.55%); assay type: functional
NCI-H460 [18] = test: Cell cycle arrest in human NCI-H460 cells assessed as accumulation at G2/M phase at 5 uM after 24 hrs by propidium iodide staining-based flow cytometry (reference value: 34.71%); assay type: functional

Q: For COc1ccc(C(=O)/C=C/c2ccc(OCCN3CCOCC3)c(OC)c2)cc1, which IC50 (HCT-116) is on record?
A: The IC50 was over 20 µM.

Q: What about the IC50 (HCT-15) of the same compound?
A: Its IC50 is 7.54 µM.

Q: What about the IC50 (NCI-H460 [1]) of the same compound?
A: Its IC50 is 9.96 µM.

Q: And the IC50 [2]?
A: Its IC50 is 7.09 µM.

Q: What about the IC50 (DU-145) of the same compound?
A: Its IC50 is 8.74 µM.

Q: What about the IC50 (PC-3) of the same compound?
A: The IC50 was 9.19 µM.

Q: And the IC50 (A549)?
A: Its IC50 is 8.21 µM.

Q: Which results are given for COc1cc(/C=C/C(=O)c2ccc(Cl)cc2)ccc1OCCCN1CCCc2ccccc21?
A: IC50 (HCT-116): > 20 µM; IC50 (HCT-15): > 20 µM; IC50 (NCI-H460 [1]): > 20 µM; IC50 [2]: 16.2 µM; IC50 (DU-145): 18.1 µM; IC50 (PC-3): > 20 µM; IC50 (A549): > 20 µM

Q: Which IC50 (HCT-116) does the source give for COc1cc(/C=C/C(=O)c2ccc(C(F)(F)F)cc2)ccc1OCCN1CCOCC1 here?
A: Its IC50 is over 20 µM.

Q: What about the IC50 (HCT-15) of the same compound?
A: Its IC50 is over 20 µM.

Q: And the IC50 (NCI-H460 [1])?
A: Its IC50 is over 20 µM.

Q: What about the IC50 [2] of the same compound?
A: The IC50 was over 20 µM.

Q: What about the IC50 (DU-145) of the same compound?
A: The IC50 was over 20 µM.

Q: And the IC50 (PC-3)?
A: The IC50 was 6.17 µM.

Q: And the IC50 (A549)?
A: The IC50 was 19.1 µM.

Q: Which results are given for COc1ccc(/C=C\c2cc(OC)c(OC)c(OC)c2)cc1O [COMBRETASTATIN A4]?
A: IC50 (HCT-116): 9.12 µM; IC50 (HCT-15): 8.87 µM; IC50 (NCI-H460 [1]): 0.048 µM; IC50 [2]: 9.75 µM; IC50 (DU-145): 0.28 µM; IC50 (PC-3): 3.53 µM; IC50 (A549): 9.29 µM

Q: With COc1ccc(C(=O)/C=C/c2ccc(OCCCN3CCCCC3)c(OC)c2)cc1 as the compound, how does the IC50 (HCT-116) read?
A: Its IC50 is 1.73 µM.

Q: And the IC50 (HCT-15)?
A: Its IC50 is 5.34 µM.

Q: And the IC50 (NCI-H460 [1])?
A: Its IC50 is 1.48 µM.

Q: And the IC50 [2]?
A: Its IC50 is 6.3 µM.

Q: And the IC50 (DU-145)?
A: Its IC50 is 5.08 µM.

Q: What about the IC50 (PC-3) of the same compound?
A: Its IC50 is 9.53 µM.

Q: What about the IC50 (A549) of the same compound?
A: Its IC50 is 3.29 µM.

Q: And the Activity (NCI-H460 [3])?
A: Its Activity is “Active”.

Q: And the Activity (NCI-H460 [4])?
A: The Activity was “Active”.

Q: What about the Activity (NCI-H460 [5]) of the same compound?
A: Its Activity is “Active”.

Q: What about the Activity (NCI-H460 [6]) of the same compound?
A: Its Activity is “Active”.

Q: What about the Activity (NCI-H460 [7]) of the same compound?
A: Its Activity is “Dose-dependent effect”.

Q: And the Activity (NCI-H460 [8])?
A: Its Activity is “inactive”.

Q: What about the IC50 [9] of the same compound?
A: Its IC50 is 9.66 µM.

Q: And the Activity (NCI-H460 [10])?
A: The Activity was 47.5%.

Q: What about the Activity (NCI-H460 [11]) of the same compound?
A: Its Activity is 12.21%.

Q: What about the Activity (NCI-H460 [12]) of the same compound?
A: The Activity was 39.3%.

Q: And the Activity (NCI-H460 [13])?
A: The Activity was 46.74%.

Q: What about the Activity (NCI-H460 [14]) of the same compound?
A: Its Activity is 9.3%.

Q: What about the Activity (NCI-H460 [15]) of the same compound?
A: The Activity was 42.88%.

Q: What about the Activity (NCI-H460 [16]) of the same compound?
A: Its Activity is 42.8%.

Q: And the Activity (NCI-H460 [17])?
A: Its Activity is 8.12%.

Q: And the Activity (NCI-H460 [18])?
A: Its Activity is 48.85%.

Q: For COc1ccc(C(=O)/C=C/c2ccc(OCCCN3CCOCC3)c(OC)c2)cc1, which IC50 (HCT-116) is on record?
A: Its IC50 is 6.78 µM.

Q: What about the IC50 (HCT-15) of the same compound?
A: Its IC50 is 11 µM.

Q: What about the IC50 (NCI-H460 [1]) of the same compound?
A: The IC50 was 9.89 µM.

Q: What about the IC50 [2] of the same compound?
A: Its IC50 is 7.12 µM.

Q: What about the IC50 (DU-145) of the same compound?
A: Its IC50 is 2.02 µM.

Q: And the IC50 (PC-3)?
A: The IC50 was 7.89 µM.

Q: And the IC50 (A549)?
A: The IC50 was 5.36 µM.

Q: What does the source list for COc1cc(/C=C/C(=O)c2ccc(Br)cc2)ccc1OCCCN1CCCCC1?
A: IC50 (HCT-116): > 20 µM; IC50 (HCT-15): > 20 µM; IC50 (NCI-H460 [1]): 8.16 µM; IC50 [2]: > 20 µM; IC50 (DU-145): 17.1 µM; IC50 (PC-3): 8.93 µM; IC50 (A549): 16.5 µM

Q: Which IC50 (HCT-116) does the source give for COc1cc(/C=C/C(=O)c2ccc(Cl)cc2Cl)ccc1OCCCN1CCCc2ccccc21 here?
A: The IC50 was over 20 µM.

Q: And the IC50 (HCT-15)?
A: The IC50 was over 20 µM.

Q: What about the IC50 (NCI-H460 [1]) of the same compound?
A: Its IC50 is over 20 µM.

Q: And the IC50 [2]?
A: Its IC50 is over 20 µM.

Q: And the IC50 (DU-145)?
A: The IC50 was over 20 µM.

Q: What about the IC50 (PC-3) of the same compound?
A: Its IC50 is 8.17 µM.

Q: And the IC50 (A549)?
A: The IC50 was over 20 µM.

Q: Which IC50 (HCT-116) does the source give for COc1cc(/C=C/C(=O)c2ccc(Br)cc2)ccc1OCCN1CCOCC1 here?
A: Its IC50 is over 20 µM.

Q: What about the IC50 (HCT-15) of the same compound?
A: The IC50 was over 20 µM.

Q: And the IC50 (NCI-H460 [1])?
A: Its IC50 is over 20 µM.

Q: What about the IC50 [2] of the same compound?
A: Its IC50 is over 20 µM.

Q: And the IC50 (DU-145)?
A: The IC50 was 9.74 µM.

Q: And the IC50 (PC-3)?
A: The IC50 was 8.89 µM.

Q: And the IC50 (A549)?
A: The IC50 was 12.1 µM.

Q: With COc1cc(/C=C/C(=O)c2ccccc2)ccc1OCCCN1CCCc2ccccc21 as the compound, how does the IC50 (HCT-116) read?
A: Its IC50 is over 20 µM.

Q: And the IC50 (HCT-15)?
A: The IC50 was over 20 µM.

Q: What about the IC50 (NCI-H460 [1]) of the same compound?
A: The IC50 was over 20 µM.

Q: And the IC50 [2]?
A: The IC50 was 19.8 µM.

Q: What about the IC50 (DU-145) of the same compound?
A: The IC50 was over 20 µM.

Q: And the IC50 (PC-3)?
A: Its IC50 is over 20 µM.

Q: What about the IC50 (A549) of the same compound?
A: The IC50 was over 20 µM.

Q: Which IC50 (HCT-116) does the source give for COc1cc(/C=C/C(=O)c2ccccc2OC)ccc1OCCCN1CC(C)OC(C)C1 (stereo not given) here?
A: The IC50 was 6.48 µM.

Q: And the IC50 (HCT-15)?
A: Its IC50 is 6.36 µM.

Q: What about the IC50 (NCI-H460 [1]) of the same compound?
A: Its IC50 is 8.1 µM.

Q: What about the IC50 [2] of the same compound?
A: Its IC50 is 5.03 µM.

Q: What about the IC50 (DU-145) of the same compound?
A: Its IC50 is 3.87 µM.

Q: What about the IC50 (PC-3) of the same compound?
A: Its IC50 is over 20 µM.

Q: And the IC50 (A549)?
A: Its IC50 is 5.32 µM.

Q: Which results are given for COc1cc(/C=C/C(=O)c2ccc(Br)cc2)ccc1OCCCN1CCCc2ccccc21?
A: IC50 (HCT-116): > 20 µM; IC50 (HCT-15): > 20 µM; IC50 (NCI-H460 [1]): > 20 µM; IC50 [2]: > 20 µM; IC50 (DU-145): > 20 µM; IC50 (PC-3): > 20 µM; IC50 (A549): 19.1 µM

— ChEMBL document CHEMBL4043140, “Synthesis of different heterocycles-linked chalcone conjugates as cytotoxic agents and tubulin polymerization inhibitors” (Bioorg Med Chem, 2017)
